According to patent US10512630B2, “Compositions and methods for treating cancer” (The Regents Of The University Of California, priority 2015, dated 2019):

How the values were obtained:
[1] = test system: MDA-MB-231 triple-negative breast cancer cells; test: Proliferation of MDA-MB-231 triple-negative breast cancer cells in vitro; type: cell-based, human; conditions: for Cell proliferation (% control) as a function of parthenolide analog dose (10 uM). / Cell proliferation (% control) as a function of parthenolide analog dose (50 uM).: MDA-MB-231 cells, data corresponds to FIG. 5; for Antitumor effects compared with dimethylamino-parthenolide (DMAPT): MDA-MB-231, doses 0-50 micromolar, most notable at 10 micromolar, FIG. 2
Description: (§1) FIG. 2: Parthenolides inhibit proliferation of MDAMB231 triple negative breast cancer cells. Parthenolide analogues JD211-JD216 were tested for antitumor activity using triple-negative breast cancer cells (MDA-MB-231) in vitro. Doses ranged from 0-50 micromolar and tumor cell proliferation was assessed using established methods. […] This was most notable at lower compound dose at 10 micromolar. These findings indicate that novel compounds such as JD213, JD214, JD215 and JD216 are more promising candidates for anticancer therapy then DMAPT because these cancers are more sensitive to compounds other than DMAPT.
as §1, with “Parthenolide” for “FIG. 2: Parthenolides inhibit proliferation of MDAMB231 triple negative breast cancer cells. Parthenolide”

[2] = test system: human umbicical vein endothelial cells (HUVEC); test: Proliferation of human umbilical vein endothelial cells (HUVEC) in vitro; type: cell-based; conditions: dosed at 100-nM or at doses up to 10-uM (not shown); FIG. 6

SMILES | Cell proliferation (% control) as a function of parthenolide analog dose (10 uM). [1] | Cell proliferation (% control) as a function of parthenolide analog dose (50 uM). [1] | Antitumor effects compared with dimethylamino-parthenolide (DMAPT) [1] | Effect on proliferation of HUVEC [2] | Suppression of MDA-MB-231 cell proliferation ([1]; 100-nM dose (0.1-uM) in vitro, compared to control (P<0.001), FIG. 6)
C/C1=C\CC[C@@]2(C)O[C@H]2[C@H]2OC(=O)[C@@H](CNC(C)(C)C(=O)O)[C@@H]2CC1 [JD215, 2-((((3R,3aS,10bS,E)-6,9a-Dimethyl-2-oxo-2,3,3a,4,5,8,9,9a,10a,10b-decahydrooxire-no[2′,3′:9,10]cyclodeca[1,2-b]furan-3-yl)methyl)amino)-2-methylpropanoic acid] | 59.5 % control | 0 % control | greater than that observed with dimethylamino-parthenolide (DMAPT) | – | –
C/C1=C\CC[C@@]2(C)O[C@H]2[C@H]2OC(=O)[C@@H](CNC(C)(C)C(=O)OCc3ccccc3)[C@@H]2CC1 [JD212, Benzyl 2-((((3R,3aS,10bS,E)-6,9a-dimethyl-2-oxo-2,3,3a,4,5,8,9,9a,10a,10b-decahydrooxir-eno[2′,3′:9,10]cyclodeca[1,2-b]furan-3-yl)methyl)amino)-2-methylpropanoate] | 103.4 % control | 100.8 % control | – | – | –
C/C1=C\CC[C@@]2(C)O[C@H]2[C@H]2OC(=O)[C@@H](CNCC(=O)O)[C@@H]2CC1 [JD211, (((3R,3aS,1bS,E)-6,9a-dimethyl-2-oxo-2,3,3a,4,5,8,9,9a,10a,10b-decahydrooxire-no[2′,3′:9,10]cyclodeca[1,2-b]furan-3-yl)methyl)glycine] | 106.0 % control | 105.8 % control | – | – | –
C/C1=C\CC[C@@]2(C)O[C@H]2[C@H]2OC(=O)[C@@H](CN(C)CC(=O)O)[C@@H]2CC1 [JD214, N-(((3R,3aS,10bS,E)-6,9a-Dimethyl-2-oxo-2,3,3a,4,5,8,9,9a,10a,10b-decahydrooxire-no[2′,3′:9,10]cyclodeca[1,2-b]furan-3-yl)methyl)-N-methylglycine] | 40.0 % control | 16.6 % control | greater than that observed with dimethylamino-parthenolide (DMAPT) | – | –
C/C1=C\CC[C@@]2(C)O[C@H]2[C@H]2OC(=O)[C@@H](CNCC(=O)OCc3ccccc3)[C@@H]2CC1 [JD216, Benzyl (((3R,3aS,10bS,E)-6,9a-dimethyl-2-oxo-2,3,3a,4,5,8,9,9a,10a,10b-decahydrooxire-no[2′,3′:9,10]cyclodeca[1,2-b]furan-3-yl)methyl)glycinate] | 0 % control | 0 % control | greater than that observed with dimethylamino-parthenolide (DMAPT) | does not significantly alter | effectively suppress
C/C1=C\CC[C@@]2(C)O[C@H]2[C@H]2OC(=O)[C@@H](CN(C)CC(=O)OCc3ccccc3)[C@@H]2CC1 [JD213, Benzyl N-(((3R,3aS,10bS,E)-6,9a-dimethyl-2-oxo-2,3,3a,4,5,8,9,9a,10a,10b-decahydrooxire-no[2′,3′:9,10]cyclodeca[1,2-b]furan-3-yl)methyl)-N-methylglycinate] | 26.7 % control | 0.4 % control | greater than that observed with dimethylamino-parthenolide (DMAPT) | – | –
